What follows are compounds tested on Palmitoyl CoA oxidation (assay: Mitochondrial assay: palmitoyl CoA oxidation). Conditions: Rat heart mitochondria, 16 µM 1-14C palmitoyl CoA, 15 min at 30°C, 14C bicarbonate counted; read-out: PalmCoA IC50.
Type: biochemical
Protocol: Rat heart mitochondria were isolated by the method ofNedergard and Cannon (Methods in Enzymol. 55, 3, 1979).
Palmitoyl CoA oxidation - The Palmityl CoA oxidation was carried out in a total volume of 100 µL containing the following agents: 110 mM KCl, 33 mM Tris buffer at pH 8, 2 mM KPi, 2 mM MgCl2, 0.1 mM EDTA, 14.7 µM defatted BSA, 0.5 mM malic acid, 13 mM carnitine, 1 mM ADP, 52 µg of mitochondrial protein, and 16 µM 1-14C palmitoyl CoA (Sp. Activity 60 mCi/mmole; 20 µCi/mL, using 5 µL per assay). The compounds of this invention were added in a DMSO solution at the following concentrations: 100 µM, 30 µM, and 3 µM. In each assay, a DMSO control was used. After 15 min at 30°C, the enzymatic reaction was centrifuged (20,000 g for 1 min), and 70 µL of the supernatant was added to an activated reverse phase silicic acid column (approximately 0.5 mL of silicic acid). The column was eluted with 2 mL of water, and 0.5 mL of the eluent was used for scintillation counting to determine the amount of ^14C trapped as ^14C bicarbonate ion.
`Cc1nc2cc(OC[C@H](O)CN3CCN(CC(=O)Nc4cccc5c4CCC5)CC3)ccc2s1` was tested, and the IC50 was 15000 nM.
In the case of `Cc1nc2cc(OC[C@H](O)CN3CCN(CC(=O)Nc4ccc(Oc5ccccc5)cc4)CC3)ccc2s1`, the IC50 is reported as 330 nM.
`O=C(CN1CCN(C[C@@H](O)COc2ccc3oc(-c4ccccc4)nc3c2)CC1)Nc1cccc(Oc2ccccc2)c1` showed an IC50 of 8500 nM.
Work on `Cc1nc2cc(OC[C@H](O)CN3CCN(CC(=O)Nc4cccc(-c5ccccc5)c4)CC3)ccc2s1` yielded an IC50 of 180 nM.
In the case of `CCn1c2ccccc2c2cc(NC(=O)CN3CCN(C[C@@H](O)COc4ccc5sc(C)nc5c4)CC3)ccc21`, the IC50 is reported as 850 nM.
`O=C(CN1CCN(C[C@@H](O)COc2ccc3oc(-c4ccccc4)nc3c2)CC1)Nc1ccc2ncccc2c1` gave an IC50 of 6200 nM.
`Cc1nc2cc(OC[C@H](O)CN3CCN(CC(=O)Nc4cccc5cccnc45)CC3)ccc2s1` gave an IC50 of 5200 nM.
`Cc1nc2cc(OC[C@H](O)CN3CCN(CC(=O)Nc4nc(-c5ccc(Cl)cc5)cs4)CC3)ccc2s1` showed an IC50 of 7000 nM.
In the case of `Cc1nc2cc(OC[C@H](O)CN3CCN(CC(=O)Nc4nc(-c5ccc(Cl)cc5)cs4)C[C@@H]3C)ccc2s1`, the IC50 is reported as 400 nM.
`Cc1nc2cc(OC[C@H](O)CN3CCN(CC(=O)N[C@H]4CCCc5ccccc54)CC3)ccc2s1` was tested, and the IC50 was 80 nM.
For `Cc1nc2cc(OC[C@H](O)CN3CCN(CC(=O)N[C@@H](C)c4ccc5ccccc5c4)CC3)ccc2s1`, the IC50 was 850 nM.
In the case of `Cc1nc2cc(OC[C@H](O)CN3CCN(CC(=O)N[C@@H](C)c4ccccc4)CC3)ccc2s1`, the IC50 is reported as 4400 nM.

Reference: patent EP1806346B1, “Substituted piperazine compounds and their use as fatty acid oxidation inhibitors” (CV THERAPEUTICS, INC., priority 2002, dated 2004)
